Measured values: patent US20240116913A1, “A CRYSTALLINE FORM OF (4-METHYL-2-[1,2,3]TRIAZOL-2-YL-PHENYL)-[(R)-3-(3-[1,2,3]TRIAZOL-2-YL-BENZYL)-MORPHOLIN-4-YL]-METHANONE” (Idorsia Pharmaceuticals Ltd, priority 2021, published 2024)

Key:
[1] = Moisture sorption at 25° C. (dynamic vapor sorption, DVS); type: physicochemical; conditions: for Moisture picked up (mass change): range 0 to 95% RH at 25° C.
Procedure: Moisture sorption isotherm was collected on a multi sample instrument SPS-100n (Projekt Messtechnik, Ulm, Germany) operated in stepping mode at 25° C. The sample was allowed to equilibrate at 40% RH before starting a pre-defined humidity program 40-0-95-0-95-40% RH, steps of 5% RH and with a maximal equilibration time of 24 hours per step were applied. About 20 to 30 mg of each sample was used. The hygroscopic classification as disclosed herein is done according to the European Pharmacopeia Technical Guide (1999, page 86), that is, a material is classified as “not hygroscopic or “non-hygroscopic” when the increase in mass, as measured by the DVS method disclosed herein, is less than 0.2%; a material is classified as slightly hygroscopic, when the increase in mass is less than 2% and equal to or greater than 0.2% mass/mass; finally, a material is classified as hygroscopic, when the increase in mass is less than 15% and equal to or greater than 2% mass/mass. The mass change between 40% relative humidity and 80% relative humidity in the first adsorption scan was considered. Data shown are from the first upwards cycle.

[2] = Bulk density and tapped density (Densi-tap tapping device); type: physicochemical; conditions: for Tapped density: after 3750 tappings; for Hausner ratio (HR) (ratio between tapped and bulk density): calculated from measured tapped and bulk densities; for Type of powder flow (flowability class from HR): classified from Hausner ratio; for Bulk density: powder without any processing, 10 mL glass cylinder
Procedure: Bulk and tapped density were measured on a Densi-tap tapping device from Matec using a 10 mL glass cylinder and using powder without any processing. For tapped density the value is reported after 3750 tappings.

[3] = listed as crystalline form 1 of ACT-539313

Moisture picked up (mass change) [1]	Tapped density ([2]; listed as amorphous ACT-539313)	Hausner ratio (HR) (ratio between tapped and bulk density) ([2]; listed as amorphous material)	Bulk density ([2]; listed as amorphous ACT-539313)	Tapped density [2]	Hausner ratio (HR) (ratio between tapped and bulk density) [2, 3]	Bulk density [2]	SMILES	Hygroscopic classification according to Ph. Eur. ([1]; DVS at 25° C., mass change between 40% and 80% RH, first adsorption scan)	Type of powder flow (flowability class from HR) ([2]; listed as amorphous material)	Hygroscopicity compared between solid forms ([1]; cf. FIGS. 4 and 5, Tables 1 and 3)	Type of powder flow (flowability class from HR) [2, 3]
~2.6% of moisture in the range 0	0.13 g/mL	2.26	0.06 g/mL				Cc1ccc(C(=O)N2CCOC[C@H]2Cc2cccc(-n3nccn3)c2)c(-n2nccn2)c1 [ACT-539313 in amorphous state, (4-Methyl-2-[1,2,3]triazol-2-yl-phenyl)-[(R)-3-(3-[1,2,3]triazol-2-yl-benzyl)-morpholin-4-yl]-methanone]	slightly hygroscopic according to (classified as slightly hygroscopic, when the increase in mass is less than 2% and equal to or greater than 0.2% mass/mass)	very, very poor (“very, very poor” (HR>1.60))		
Material picks up about 0.1%				0.46 g/mL	1.47	0.31 g/mL	Cc1ccc(C(=O)N2CCOC[C@H]2Cc2cccc(-n3nccn3)c2)c(-n2nccn2)c1 [ACT-539313 in crystalline form 1, (4-Methyl-2-[1,2,3]triazol-2-yl-phenyl)-[(R)-3-(3-[1,2,3]triazol-2-yl-benzyl)-morpholin-4-yl]-methanone]			less hygroscopic than the amorphous ACT-539313	very poor (“very poor” (HR from 1.46 to 1.59))
